According to the supplement of paper PMC10627819:

Assays:
B. subtilis 168 [1] = assay: fitness (endpoint OD595 vs no drug) (fraction); higher = more growth
How it was run: (§1)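 Bacterial fitness was scored as optical density at the stationary-phase transition relative to the robust mean of no-drug control wells. Scores are capped at 1. The growth data were OD595 readings every 30 min for 14 h at 37 °C, background-subtracted against the first reading, from 384-well plates inoculated at OD595 0.01 in TSB, LB Lennox or CY.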

S. aureus DSM 20231 [2] = assay: as above
How it was run: as §1

S. pneumoniae D39V [3] = assay: as above
How it was run: as §1

S. aureus Newman [4] = assay: as above
How it was run: as §1

B. subtilis 168 [5] = assay: Bliss interaction score (quartile over a dose matrix) (fitness difference); higher = more antagonism (negative = synergy)
How it was run: (§2)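 Each plate was normalised to the robust mean of its own no-drug wells, using OD595 at entry into stationary phase, with values capped at 1. This normalised growth is the fitness value. The Bliss score is the difference between observed and product-expected fitness, with single-drug fitness inferred from the combination data and quartiles taken over technical, biological and donor/recipient replicates.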

S. aureus DSM 20231 [6] = assay: as above
How it was run: as §2

S. pneumoniae D39V [7] = assay: as above
How it was run: as §2

S. aureus Newman [8] = assay: as above
How it was run: as §2

[9] = first compound 0.625 µg/mL, partner 0.39 µg/mL
[10] = first compound 0.625 µg/mL, partner 0.78 µg/mL
[11] = first compound 0.625 µg/mL, partner 1.56 µg/mL
[12] = first compound 1.25 µg/mL, partner 0.39 µg/mL
[13] = first compound 1.25 µg/mL, partner 0.78 µg/mL
[14] = first compound 1.25 µg/mL, partner 1.56 µg/mL
[15] = first compound 2.5 µg/mL, partner 0.39 µg/mL
[16] = first compound 2.5 µg/mL, partner 0.78 µg/mL
[17] = first compound 2.5 µg/mL, partner 1.56 µg/mL
[18] = first compound 0.625 µg/mL, partner 1.25 µg/mL
[19] = first compound 0.625 µg/mL, partner 2.5 µg/mL
[20] = first compound 0.625 µg/mL, partner 5 µg/mL
[21] = first compound 1.25 µg/mL, partner 1.25 µg/mL
[22] = first compound 1.25 µg/mL, partner 2.5 µg/mL
[23] = first compound 1.25 µg/mL, partner 5 µg/mL
[24] = first compound 2.5 µg/mL, partner 1.25 µg/mL
[25] = first compound 2.5 µg/mL, partner 2.5 µg/mL
[26] = first compound 2.5 µg/mL, partner 5 µg/mL
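Wherever Bliss interaction score (quartile over a dose matrix) is given: first quartile when negative (synergy) and third quartile when positive (antagonism).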

Cc1ncc([N+](=O)[O-])n1CCO [Metronidazole] + COc1ccc(C[C@H](N)C(=O)N[C@H]2[C@@H](O)[C@H](n3cnc4c(N(C)C)ncnc43)O[C@@H]2CO)cc1 [Puromycin]
fitness (B. subtilis 168 [1]; [9]): 0.936
fitness (B. subtilis 168 [1]; [10]): 0.953
fitness (B. subtilis 168 [1]; [11]): 0.946
fitness (B. subtilis 168 [1]; [12]): 0.945
fitness (B. subtilis 168 [1]; [13]): 0.931
fitness (B. subtilis 168 [1]; [14]): 0.895
fitness (B. subtilis 168 [1]; [15]): 0.961
fitness (B. subtilis 168 [1]; [16]): 0.937
fitness (B. subtilis 168 [1]; [17]): 0.864
fitness (S. aureus DSM 20231 [2]; [9]): 0.997
fitness (S. aureus DSM 20231 [2]; [10]): ≥ 1
fitness (S. aureus DSM 20231 [2]; [11]): ≥ 1
fitness (S. aureus DSM 20231 [2]; first compound 0.625 µg/mL, partner 3.12 µg/mL, one replicate): ≥ 1
fitness (S. aureus DSM 20231 [2]; first compound 0.625 µg/mL, partner 6.24 µg/mL, one replicate): 0.756
fitness (S. aureus DSM 20231 [2]; [12]): ≥ 1
fitness (S. aureus DSM 20231 [2]; [13]): ≥ 1
fitness (S. aureus DSM 20231 [2]; [14]): ≥ 1
fitness (S. aureus DSM 20231 [2]; first compound 1.25 µg/mL, partner 3.12 µg/mL, one replicate): 0.957
fitness (S. aureus DSM 20231 [2]; first compound 1.25 µg/mL, partner 6.24 µg/mL, one replicate): 0.827
fitness (S. aureus DSM 20231 [2]; [15]): ≥ 1
fitness (S. aureus DSM 20231 [2]; [16]): ≥ 1
fitness (S. aureus DSM 20231 [2]; [17]): ≥ 1
fitness (S. aureus DSM 20231 [2]; first compound 2.5 µg/mL, partner 3.12 µg/mL, one replicate): 0.977
fitness (S. aureus DSM 20231 [2]; first compound 2.5 µg/mL, partner 6.24 µg/mL, one replicate): 0.848
fitness (S. pneumoniae D39V [3]; first compound 1.073 µg/mL, partner 1 µg/mL): ≥ 1
fitness (S. pneumoniae D39V [3]; first compound 1.073 µg/mL, partner 2 µg/mL): 0.973
fitness (S. pneumoniae D39V [3]; first compound 1.073 µg/mL, partner 4 µg/mL): 0.874
fitness (S. pneumoniae D39V [3]; first compound 1.25 µg/mL, partner 1 µg/mL, one replicate): 0.928
fitness (S. pneumoniae D39V [3]; first compound 1.25 µg/mL, partner 2 µg/mL, one replicate): 0.97
fitness (S. pneumoniae D39V [3]; first compound 1.25 µg/mL, partner 4 µg/mL, one replicate): 0.842
fitness (S. pneumoniae D39V [3]; first compound 2.145 µg/mL, partner 1 µg/mL): 0.875
fitness (S. pneumoniae D39V [3]; first compound 2.145 µg/mL, partner 2 µg/mL): 0.904
fitness (S. pneumoniae D39V [3]; first compound 2.145 µg/mL, partner 4 µg/mL): 0.836
fitness (S. pneumoniae D39V [3]; first compound 2.5 µg/mL, partner 1 µg/mL, one replicate): 0.936
fitness (S. pneumoniae D39V [3]; first compound 2.5 µg/mL, partner 2 µg/mL, one replicate): ≥ 1
fitness (S. pneumoniae D39V [3]; first compound 2.5 µg/mL, partner 4 µg/mL, one replicate): 0.835
fitness (S. pneumoniae D39V [3]; first compound 4.29 µg/mL, partner 1 µg/mL): 0.96
fitness (S. pneumoniae D39V [3]; first compound 4.29 µg/mL, partner 2 µg/mL): 0.914
fitness (S. pneumoniae D39V [3]; first compound 4.29 µg/mL, partner 4 µg/mL): 0.88
fitness (S. pneumoniae D39V [3]; first compound 5 µg/mL, partner 1 µg/mL, one replicate): 0.97
fitness (S. pneumoniae D39V [3]; first compound 5 µg/mL, partner 2 µg/mL, one replicate): 0.95
fitness (S. pneumoniae D39V [3]; first compound 5 µg/mL, partner 4 µg/mL, one replicate): 0.852
fitness (S. aureus Newman [4]; [9]): 0.902
fitness (S. aureus Newman [4]; [10]): 0.968
fitness (S. aureus Newman [4]; [11]): ≥ 1
fitness (S. aureus Newman [4]; first compound 0.781 µg/mL, partner 0.39 µg/mL, one replicate): ≥ 1
fitness (S. aureus Newman [4]; first compound 0.781 µg/mL, partner 0.78 µg/mL, one replicate): ≥ 1
fitness (S. aureus Newman [4]; first compound 0.781 µg/mL, partner 1.56 µg/mL, one replicate): ≥ 1
fitness (S. aureus Newman [4]; [12]): 0.998
fitness (S. aureus Newman [4]; [13]): ≥ 1
fitness (S. aureus Newman [4]; [14]): ≥ 1
fitness (S. aureus Newman [4]; first compound 1.562 µg/mL, partner 0.39 µg/mL, one replicate): 0.974
fitness (S. aureus Newman [4]; first compound 1.562 µg/mL, partner 0.78 µg/mL, one replicate): 0.997
fitness (S. aureus Newman [4]; first compound 1.562 µg/mL, partner 1.56 µg/mL, one replicate): ≥ 1
fitness (S. aureus Newman [4]; [15]): ≥ 1
fitness (S. aureus Newman [4]; [16]): ≥ 1
fitness (S. aureus Newman [4]; [17]): ≥ 1
fitness (S. aureus Newman [4]; first compound 3.124 µg/mL, partner 0.39 µg/mL, one replicate): 0.933
fitness (S. aureus Newman [4]; first compound 3.124 µg/mL, partner 0.78 µg/mL, one replicate): ≥ 1
fitness (S. aureus Newman [4]; first compound 3.124 µg/mL, partner 1.56 µg/mL, one replicate): ≥ 1
Bliss interaction score (B. subtilis 168 [5]): -0.0368
Bliss interaction score (S. aureus DSM 20231 [6]): 0.0499
Bliss interaction score (S. pneumoniae D39V [7]): 0.129
Bliss interaction score (S. aureus Newman [8]): 0.0534

Cc1ncc([N+](=O)[O-])n1CCO [Metronidazole] + C[n+]1ccc(-c2cc[n+](C)cc2)cc1 [Paraquat]
fitness (B. subtilis 168 [1]; [18]): 0.973
fitness (B. subtilis 168 [1]; [19]): 0.957
fitness (B. subtilis 168 [1]; [20]): 0.851
fitness (B. subtilis 168 [1]; [21]): 0.949
fitness (B. subtilis 168 [1]; [22]): 0.929
fitness (B. subtilis 168 [1]; [23]): 0.864
fitness (B. subtilis 168 [1]; [24]): 0.917
fitness (B. subtilis 168 [1]; [25]): 0.917
fitness (B. subtilis 168 [1]; [26]): 0.851
fitness (S. aureus DSM 20231 [2]; [18]): 0.97
fitness (S. aureus DSM 20231 [2]; [19]): 0.954
fitness (S. aureus DSM 20231 [2]; [20]): 0.955
fitness (S. aureus DSM 20231 [2]; [21]): ≥ 1
fitness (S. aureus DSM 20231 [2]; [22]): ≥ 1
fitness (S. aureus DSM 20231 [2]; [23]): 0.978
fitness (S. aureus DSM 20231 [2]; [24]): ≥ 1
fitness (S. aureus DSM 20231 [2]; [25]): ≥ 1
fitness (S. aureus DSM 20231 [2]; [26]): ≥ 1
fitness (S. pneumoniae D39V [3]; first compound 1.073 µg/mL, partner 1.5 µg/mL): 0.969
fitness (S. pneumoniae D39V [3]; first compound 1.073 µg/mL, partner 3 µg/mL): 0.999
fitness (S. pneumoniae D39V [3]; first compound 1.073 µg/mL, partner 6 µg/mL): 0.982
fitness (S. pneumoniae D39V [3]; first compound 1.25 µg/mL, partner 1.5 µg/mL, one replicate): 0.983
fitness (S. pneumoniae D39V [3]; first compound 1.25 µg/mL, partner 3 µg/mL, one replicate): 0.99
fitness (S. pneumoniae D39V [3]; first compound 1.25 µg/mL, partner 6 µg/mL, one replicate): ≥ 1
fitness (S. pneumoniae D39V [3]; first compound 2.145 µg/mL, partner 1.5 µg/mL): 0.958
fitness (S. pneumoniae D39V [3]; first compound 2.145 µg/mL, partner 3 µg/mL): 0.905
fitness (S. pneumoniae D39V [3]; first compound 2.145 µg/mL, partner 6 µg/mL): 0.803
fitness (S. pneumoniae D39V [3]; first compound 2.5 µg/mL, partner 1.5 µg/mL, one replicate): ≥ 1
fitness (S. pneumoniae D39V [3]; first compound 2.5 µg/mL, partner 3 µg/mL, one replicate): ≥ 1
fitness (S. pneumoniae D39V [3]; first compound 2.5 µg/mL, partner 6 µg/mL, one replicate): ≥ 1
fitness (S. pneumoniae D39V [3]; first compound 4.29 µg/mL, partner 1.5 µg/mL): 0.899
fitness (S. pneumoniae D39V [3]; first compound 4.29 µg/mL, partner 3 µg/mL): 0.95
fitness (S. pneumoniae D39V [3]; first compound 4.29 µg/mL, partner 6 µg/mL): 0.912
fitness (S. pneumoniae D39V [3]; first compound 5 µg/mL, partner 1.5 µg/mL, one replicate): ≥ 1
fitness (S. pneumoniae D39V [3]; first compound 5 µg/mL, partner 3 µg/mL, one replicate): ≥ 1
fitness (S. pneumoniae D39V [3]; first compound 5 µg/mL, partner 6 µg/mL, one replicate): ≥ 1
fitness (S. aureus Newman [4]; [18]): 0.936
fitness (S. aureus Newman [4]; [19]): 0.944
fitness (S. aureus Newman [4]; [20]): 0.888
fitness (S. aureus Newman [4]; first compound 0.781 µg/mL, partner 1.25 µg/mL, one replicate): 0.916
fitness (S. aureus Newman [4]; first compound 0.781 µg/mL, partner 2.5 µg/mL, one replicate): 0.951
fitness (S. aureus Newman [4]; first compound 0.781 µg/mL, partner 5 µg/mL, one replicate): 0.919
fitness (S. aureus Newman [4]; [21]): 0.875
fitness (S. aureus Newman [4]; [22]): 0.934
fitness (S. aureus Newman [4]; [23]): 0.932
fitness (S. aureus Newman [4]; first compound 1.562 µg/mL, partner 1.25 µg/mL, one replicate): 0.899
fitness (S. aureus Newman [4]; first compound 1.562 µg/mL, partner 2.5 µg/mL, one replicate): 0.874
fitness (S. aureus Newman [4]; first compound 1.562 µg/mL, partner 5 µg/mL, one replicate): 0.907
fitness (S. aureus Newman [4]; [24]): 0.862
fitness (S. aureus Newman [4]; [25]): 0.963
fitness (S. aureus Newman [4]; [26]): 0.973
fitness (S. aureus Newman [4]; first compound 3.124 µg/mL, partner 1.25 µg/mL, one replicate): 0.844
fitness (S. aureus Newman [4]; first compound 3.124 µg/mL, partner 2.5 µg/mL, one replicate): 0.908
fitness (S. aureus Newman [4]; first compound 3.124 µg/mL, partner 5 µg/mL, one replicate): 0.984
Bliss interaction score (B. subtilis 168 [5]): 0.0442
Bliss interaction score (S. aureus DSM 20231 [6]): 0.0478
Bliss interaction score (S. pneumoniae D39V [7]): -0.0431
Bliss interaction score (S. aureus Newman [8]): 0.0779
